Experimental data as given in BindingDB's records for doi:10.1046/j.1471-4159.1996.67010145.x (Mcgill University, 1996).
“And” between values parts separate entries of the source, which are not always exact repeats. Equal values may be shown once.

What follows are compounds tested against T1, Alpha-bungarotoxin (Bungarus multicinctus, UniProt P60615).
T1 sequence (P60615 whole entry): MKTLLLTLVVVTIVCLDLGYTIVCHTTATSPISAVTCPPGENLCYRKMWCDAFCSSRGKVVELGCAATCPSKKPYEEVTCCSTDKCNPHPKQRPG

SMILES	Ki
C[N+](C)(C)C	2400 nM
C=C(C=O)C[C@H]1C[C@H](O)[C@]2(C)O[C@@H]3C[C@@H]4O[C@@H]5C[C@]6(C)O[C@]7(C)CC[C@@H]8O[C@@H]9C[C@]%10(C)O[C@@H]%11C(C)=CC(=O)O[C@H]%11C[C@H]%10O[C@H]9C[C@@H](C)[C@H]8O[C@H]7C[C@H]6O[C@@]5(C)C/C=C\[C@H]4O[C@H]3C[C@H]2O1	0.35 nM and 0.23 nM
CC[N+](CC)(CC)CC	> 10000 nM
O=c1cccc2n1C[C@H]1CNC[C@H]2C1 [(1S,9R)-7,11-diazatricyclo[7.3.1.0~2,7~]trideca-2,4-dien-6-one]	1800 nM
C[N+](C)(C)CCOC(N)=O [(2-Hydroxyethyl)trimethyl ammonium chloride carbamate]	9300 nM
CN1CCC[C@H]1c1cccnc1 [(R,S)-nicotine]	1700 nM and 900 nM
COc1cc2c3cc1Oc1cc(ccc1O)C[C@H]1c4c(cc(OC)c(O)c4Oc4ccc(cc4)C[C@@H]3N(C)CC2)CC[N+]1(C)C [CAS_57-94-3]	5600 nM
C[N+]1(C)CCN(c2ccccc2)CC1 [DMPP]	670 nM
CCN1C[C@]2(COC(=O)c3ccccc3-n3c(O)cc(C)c3O)CC[C@H](OC)[C@]34C5C[C@@H]6[C@@H](OC)C[C@@](O)(C5[C@H]6OC)[C@@](O)(C13)[C@@H](OC)C24 (stereo partly drawn) [[(1S,4S,5R,6S,8R,9R,13S,16S,18S)-11-ethyl-8,9-dihydroxy-4,6,16,18-tetramethoxy-11-azahexacyclo[7.7.2.1^{2,5}.0^{1,10}.0^{3,8}.0^{13,17}]nonadecan-13-yl]methyl 2-[(3S)-3-methyl-2,5-dioxopyrrolidin-1-yl]benzoate]	7.9 nM and 3.1 nM
